The text below walks through data of patent publication US20210023209A1, “ANTIGENIC PEPTIDES DERIVING FROM PCSK2 AND USES THEREOF FOR THE DIAGNOSIS AND TREATMENT OF TYPE 1 DIABETES” (INSERM (INSTITUT NATIONAL DE LA SANTÉ ET DE LA RECHERCHE …, priority 2018, published 2021).

The test system of assay [1] is circulating CD8^+ T cells. Briefly: ex-vivo combinatorial HLA-A2 MMr assay on PBMCs. As to conditions: for cognate naïve CD8^+ T-cell repertoire (validation of candidate epitope): frequency 1-50/10^6 CD8^+ T cells, clustered MMr staining, ≥50% of individuals; for median frequency in peripheral blood: T1D patients; for frequency of MMr^+ CD8^+ T cells, in words: HLA-A2^+ recent-onset T1D and healthy subjects. Type of assay: cell-based, human.

Assay [2] has as its system islet-infiltrating CD8+ T cells of NOD mice. Briefly: IFN-γ recall assay of islet-infiltrating cells against peptide-pulsed K^d+ L cells. Type of assay: cell-based. The note with it: for positive mice (number/tested) / positive mice, percentage: 12-16-week-old NOD females, positive = IFN-γ^+CD8^+ cells >1.8%; for median percentage of IFN-γ^+CD8^+ cells / positive range of percentage of IFN-γ^+CD8^+ cells: 6 h peptide recall with brefeldin-A, intracellular IFN-γ staining. An excerpt:
Peptides predicted to be restricted by the murine MHC Class I K^d molecule were identified using prediction algorithms and scanning of the whole murine protein sequence. Peptides were first tested in pools, and positive pools subsequently deconvoluted for reactivity against individual peptides. To this end, islets were isolated from 12-16-week-old NOD mice by collagenase digestion and put in culture with recombinant human IL-2 (Proleukin, Novartis) for 5 days as described (Brezar et al, Eur J Immunol 2012). Cells exiting the islets were subsequently collected and subjected to recall assays against K^d+ L antigen-presenting cells pulsed with the indicated peptides for 6 h in the presence of brefeldin-A, followed by intracellular staining for IFN-γ. The TUM, Ins B15-23 and IGRP 206-214 peptides were included as negative control and positive controls, respectively.
We performed experiments in 12-16-week-old NOD females by analyzing the reactivity of islet-infiltrating CD8^+ T cells to peptides derived from murine Ucn3 and Pcsk2 and predicted to be restricted by the murine MHC molecule K^d. A positive response was defined as a percentage of IFN-γ^+CD8^+ cells >1.8%, which was the median response observed for the negative control TUM peptide.

Assay [3] concerns pancreas-infiltrating cells of HLA-A2^+ T1D patients. Briefly: in-situ HLA-A2 MMr staining on pancreas sections. It counts as cell-based, human. As to conditions: 2 HLA-A2^+ T1D cases, nPOD tissue sections. The method, then:
In-situ staining was performed as described (Culina et al., 2018). Unfixed, frozen sections were dried for 2 h, loaded with 1 μg of MMrs overnight at 4° C., washed gently with phosphate-buffered saline and fixed in 2% paraformaldehyde for 10 min. After a further wash, endogenous peroxidase activity was blocked with 0.3% H2O2. Sections were then incubated serially with rabbit anti-phycoerythrin, horseradish peroxidase-conjugated swine anti-rabbit and 3,3′-diaminobenzidine tetrahydrochloride substrate (ThermoFisher). After a final wash, sections were counterstained with hematoxylin, dehydrated via sequential passages in 95-100% ethanol and xylene, mounted and analyzed using a Nikon Eclipse Ni microscope with NIS-Elements Analysis D software v4.40.

The target in assay [4] is T1, HLA-A*02:01 (human).
T1 construct: HLA-A2 multimers were produced as in Leisner et al. 2008; also called HLA-A2; A2
Briefly: one of the 18 HLA-eluted peptides with verified HLA-A2 binding; loaded on HLA-A2 multimers.

For assay [5], the target named is T1, HLA-A*02:01. Description: LC-MS/MS of peptides eluted from W6/32-purified pHLA Class I complexes of beta cells; the HLA-A2 restriction in this row is predicted.
Protocol: The HLA class I peptidome of the ECN90 β-cell line was obtained from 5 biological replicates. A single biological replicate was available for primary human islets. […] Beads were subsequently loaded on GELoader Tips (20 μl; ThermoFisher) and washed before elution of pHLA complexes with 10% acetic acid.
Eluted peptides and the associated HLA Class I heavy chain and β2-microglobulin obtained from 20×10⁶ cells were concentrated to 20 μl by vacuum centrifugation, acidified with 10 μl of 1% aqueous formic acid (Normapur) and loaded on C18 stage tips (ThermoFisher) prewashed with 100% methanol and equilibrated with acetonitrile (ACN)/0.1% formic acid in LC-MS grade water (aq. formic acid) 2:98 (v/v). After loading, the C18 stage tips were washed with ACN/0.1% aq. formic acid 2:98 (v/v) and peptides separated from the more hydrophobic HLA Class I heavy chain and β2-microglobulin species by eluting them with ACN/0.1% aq. formic acid 1:1 (v/v). […] For MS analysis, 5 μl of this peptide solution were used.
Peptides were loaded and separated by nanoflow HPLC (RSLC Ultimate 3000, ThermoFisher Scientific) on a reversed phase nanocolumn (C18 Acclaim PepMap 100, 50 cm length, 75 μm i.d. ThermoFisher Scientific) coupled on-line to a nanoESI Q Exactive mass spectrometer (ThermoFisher Scientific).

Residues, ends and D or L forms follow the SMILES beside them.

As for “KIF1A1347-1355: HLA-eluted HLA-A2-restricted Kinesin Family Member 1A peptide (VLDTSVAYV)”, the “cognate naïve CD8^+ T-cell repertoire (validation of candidate epitope)” value (shortened to “cognate naïve CD8^+ T-cell repertoire”) in assay [1] (HLA-A2^+ healthy donors) is listed as “validated”.

In the case of “TYFLLPLLL [Ucn3 5-13, peptide derived from murine Ucn3, predicted to be restricted by K^d]”, in assay [2], the “positive mice (number/tested)” value was 8/12; the “positive mice, percentage” value is 67%; the “median percentage of IFN-γ^+CD8^+ cells” value was 2.3%; the “positive range of percentage of IFN-γ^+CD8^+ cells” value was 2.1-8.6%.

On to “CHGA344-352: HLA-eluted HLA-A2-restricted chromogranin A peptide (KMDQLAKEL)”, for which, in assay [1] (HLA-A2^+ healthy donors), the “cognate naïve CD8^+ T-cell repertoire” value was “validated”.

Consider `CC(C)C[C@H](NC(=O)[C@H](CCC(=O)O)NC(=O)[C@@H](NC(=O)[C@H](CC(C)C)NC(=O)[C@H](Cc1ccccc1)NC(=O)[C@H](Cc1c[nH]cn1)NC(=O)[C@H](CC(N)=O)NC(=O)[C@@H](NC(=O)[C@@H](N)Cc1ccccc1)[C@@H](C)O)C(C)C)C(=O)O` (H-FTNHFLVEL-OH; N-terminus and C-terminus assumed), for which, in assay [1] (HLA-A2^+ healthy donors), the “cognate naïve CD8^+ T-cell repertoire” value is recorded as “validated”.

Turning to “ISL1276-284: HLA-eluted HLA-A2-restricted peptide of insulin gene enhancer protein ISL1 (GLQANPVEV)”, the “cognate naïve CD8^+ T-cell repertoire” value in assay [1] (HLA-A2^+ healthy donors) was “validated”. Besides, in assay [1], the “median frequency in peripheral blood” value is on record as 7.2×10^−6. Besides, the “in-situ MMr staining of pancreas sections” value (“in-situ MMr staining” below) in assay [3] is listed as “MMr^+ cells could be detected”.

For “GYRDINEIDI [Pcsk2 109-118, peptide derived from murine Pcsk2, predicted to be restricted by K^d]”, in assay [2], the “positive mice (number/tested)” value is 6/8; the “positive mice, percentage” value turned out to be 50%; the “median percentage of IFN-γ^+CD8^+ cells” value is 1.8%; the “positive range of percentage of IFN-γ^+CD8^+ cells” value was 1.9-4.3%.

Take “SCG5-009186-194: HLA-eluted peptide from SCG5-009 mRNA splice variant (FLSGAVNRL)”: the “cognate naïve CD8^+ T-cell repertoire” value in assay [1] (HLA-A2^+ healthy donors) is recorded as “validated”. For the same molecule, the “frequency of MMr^+ CD8^+ T cells, in words” value in assay [1] was “particularly high and clustered”.

Turning to “VFSCLNTAL [Ucn3 32-40, peptide derived from murine Ucn3, predicted to be restricted by K^d]”, in assay [2], the “positive mice (number/tested)” value is on record as 8/12; the “positive mice, percentage” value was 67%; the “median percentage of IFN-γ^+CD8^+ cells” value stood at 1.9%; the “positive range of percentage of IFN-γ^+CD8^+ cells” value is 1.9-3.3%.

Turning to “UCN31-9: HLA-eluted HLA-A2-restricted urocortin-3 peptide (MLMPVHFLL)”, the “cognate naïve CD8^+ T-cell repertoire” value in assay [1] (HLA-A2^+ healthy donors) was “validated”. In addition, in assay [1], the “frequency of MMr^+ CD8^+ T cells, in words” value was “particularly high and clustered”.

Turning to “ZnT8186-184: positive control islet peptide (VAANIVLTV; UniProt Q8IWU4 186-194, looked up, fragment) [reference compound]”, the “in-situ MMr staining” value in assay [3] is listed as “MMr^+ cells could be detected”.

As for “RYLEHVQAVI [Pcsk2 501-510, peptide derived from murine Pcsk2, predicted to be restricted by K^d]”, in assay [2], the “positive mice (number/tested)” value was 5/8; the “positive mice, percentage” value stood at 63%; the “median percentage of IFN-γ^+CD8^+ cells” value amounted to 2.7%; the “positive range of percentage of IFN-γ^+CD8^+ cells” value is listed as 2.1-8.0%.

As to “KCNK16129-137: HLA-eluted HLA-A2-restricted KCNK16 peptide (ALLGIPLNV)”, in assay [1] (HLA-A2^+ healthy donors), the “cognate naïve CD8^+ T-cell repertoire” value is given as “validated”.

Regarding “IGRP 206-214: positive control peptide in NOD recall assay (VYLKTNVFL; UniProt Q9Z186 206-214, looked up, fragment) [reference compound]”, in assay [2], the “positive mice (number/tested)” value is 13/13; the “positive mice, percentage” value was 100%; the “median percentage of IFN-γ^+CD8^+ cells” value came to 12.5%; the “positive range of percentage of IFN-γ^+CD8^+ cells” value is 4.5-25.3%.

With “LYDESCSSTL [Pcsk2 341-350, peptide derived from murine Pcsk2, predicted to be restricted by K^d]”, in assay [2], the “positive mice (number/tested)” value was 6/8; the “positive mice, percentage” value was found to be 75%; the “median percentage of IFN-γ^+CD8^+ cells” value is 3.3%; the “positive range of percentage of IFN-γ^+CD8^+ cells” value is 1.9-5.2%.

In the case of “IAPP15-17/IAPP5-10: peptide splice product from fusion of IAPP15-17/IAPP5-10 (VALKLQVFL)”, the donors with recognition in assay [1] (HLA-A2^+ healthy donors, screening) is given as 1 of 6. The “median frequency in peripheral blood” value in assay [1] is listed as 1.6×10^−6. Moreover, the “in-situ MMr staining” value in assay [3] is “MMr^+ cells could be detected”.

For “SCG5186-195: HLA-eluted HLA-A2-restricted SCG5 (7B2) peptide (YLQGQRLDNV)”, the “cognate naïve CD8^+ T-cell repertoire” value in assay [1] (HLA-A2^+ healthy donors) is “validated”.

On to GLQANPVEV (peptide, UniProt P61371 276-284, looked up, range 276-284; Synthetic peptide) [insulin gene enhancer protein ISL1 276-284 peptide], for which the binding result with HLA-A*02:01 [4] is “binds”.

For the molecule ALLGIPLNV (peptide, UniProt Q96T55 129-137, looked up, range 129-137; Synthetic peptide) [KCNK16 129-137 peptide], in the assay with HLA-A*02:01 [4], the binding result is given as “binds”.

As for FTNHFLVEL [PCSK2 30-38 peptide (FTNHFLVEL)], the binding result with HLA-A*02:01 [5] is recorded as “binds”.
